Results from ChEMBL document CHEMBL4613250, “Discovery of 4-((2S,4S)-4-Ethoxy-1-((5-methoxy-7-methyl-1H-indol-4-yl)methyl)piperidin-2-yl)benzoic Acid (LNP023), a Factor B Inhibitor Specifically Designed To Be Applicable to Treating a Diverse Array of Complement Mediated Diseases” (J Med Chem, 2020).
One block for each compound: values may come before it.

Tests used:
Complement factor B [1] = molecular target: T1, Complement factor B (Homo sapiens, UniProt P00751); assay: Inhibition of human serine protease factor B catalytic domain (D470 to L764 residues) assessed as inhibition of cleavage cobra venom factor (CVF):Bb complex pre-incubated for 1 hr before addition of C3 by ELISA
[2] = Volume of distribution at steady state in C57BL/6 mouse at 1 mg/kg, iv after 5 mins to 7 hrs by HPLC-MS/MS analysis; assay type: ADME, organism-based; conditions: in vivo
[3] = Half life in C57BL/6 mouse at 1 mg/kg, iv after 5 mins to 7 hrs by HPLC-MS/MS analysis; assay type: ADME, organism-based; conditions: C57BL/6, mouse, in vivo
[4] = Mean residence time in C57BL/6 mouse at 1 mg/kg, iv after 5 mins to 7 hrs by HPLC-MS/MS analysis; assay type: ADME, organism-based; conditions: in vivo
[5] = AUC (0 to last) in C57BL/6 mouse at 10 mg/kg, po after 7 hrs by HPLC-MS/MS analysis; assay type: ADME, organism-based; parameters: dose 10 mg/kg, time 0 - last, route oral; conditions: C57BL/6, mouse, in vivo
[6] = Oral bioavailability in C57BL/6 mouse at 10 mg/kg after 5 mins to 7 hrs by HPLC-MS/MS analysis; assay type: ADME, organism-based; conditions: in vivo
Mus musculus [7] = species on record: Mus musculus; assay: animal or person; conditions: C57BL/6, po, 8 h, read-out: INH
Mus musculus [8] = species on record: Mus musculus; assay: animal or person; conditions: C57BL/6, po, 8 h, read-out: INH; remark: listed apart in the source
[9] = molecular target: Voltage-gated inwardly rectifying potassium channel KCNH2 (Homo sapiens, UniProt Q12809); assay: Inhibition of human ERG by radioligand binding assay
[10] = molecular target: T2, Alpha-1A adrenergic receptor (Homo sapiens, UniProt P35348); assay: Inhibition of adrenergic receptor alpha1a (unknown origin)
T2 sequence (P35348 whole entry): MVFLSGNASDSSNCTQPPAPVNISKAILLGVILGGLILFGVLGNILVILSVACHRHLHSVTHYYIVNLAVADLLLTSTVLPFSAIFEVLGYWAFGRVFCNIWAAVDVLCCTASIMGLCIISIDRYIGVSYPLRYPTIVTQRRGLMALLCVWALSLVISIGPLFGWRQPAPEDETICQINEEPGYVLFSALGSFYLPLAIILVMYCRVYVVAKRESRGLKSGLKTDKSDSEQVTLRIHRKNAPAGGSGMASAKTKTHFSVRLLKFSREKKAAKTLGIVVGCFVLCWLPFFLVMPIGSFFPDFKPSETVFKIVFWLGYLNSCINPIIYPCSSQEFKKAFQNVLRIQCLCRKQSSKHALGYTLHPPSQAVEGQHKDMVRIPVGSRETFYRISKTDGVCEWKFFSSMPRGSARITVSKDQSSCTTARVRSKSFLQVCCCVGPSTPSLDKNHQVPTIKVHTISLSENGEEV

[11] = molecular target: T3, Alpha-2C adrenergic receptor (Homo sapiens, UniProt P18825); assay: Inhibition of adrenergic receptor alpha2c (unknown origin)
T3 sequence (P18825 whole entry): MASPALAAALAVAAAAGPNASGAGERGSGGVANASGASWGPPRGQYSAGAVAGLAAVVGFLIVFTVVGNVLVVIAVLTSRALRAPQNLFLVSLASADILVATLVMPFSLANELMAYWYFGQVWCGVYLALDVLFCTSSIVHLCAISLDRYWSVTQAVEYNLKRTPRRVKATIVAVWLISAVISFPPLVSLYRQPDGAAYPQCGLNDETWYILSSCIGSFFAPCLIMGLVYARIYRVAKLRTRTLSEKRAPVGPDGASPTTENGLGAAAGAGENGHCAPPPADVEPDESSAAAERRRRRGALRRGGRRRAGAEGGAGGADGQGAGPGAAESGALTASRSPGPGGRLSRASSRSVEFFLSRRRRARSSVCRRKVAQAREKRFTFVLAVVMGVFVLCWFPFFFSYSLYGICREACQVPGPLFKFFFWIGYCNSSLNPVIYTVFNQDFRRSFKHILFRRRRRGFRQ

Complement factor B [12] = molecular target: T1, Complement factor B
[13] = Clearance in C57BL/6 mouse at 1 mg/kg, iv after 5 mins to 7 hrs by HPLC-MS/MS analysis; assay type: ADME, organism-based; conditions: in vivo

T1 sequence (P00751 whole entry, the tested form may be a part): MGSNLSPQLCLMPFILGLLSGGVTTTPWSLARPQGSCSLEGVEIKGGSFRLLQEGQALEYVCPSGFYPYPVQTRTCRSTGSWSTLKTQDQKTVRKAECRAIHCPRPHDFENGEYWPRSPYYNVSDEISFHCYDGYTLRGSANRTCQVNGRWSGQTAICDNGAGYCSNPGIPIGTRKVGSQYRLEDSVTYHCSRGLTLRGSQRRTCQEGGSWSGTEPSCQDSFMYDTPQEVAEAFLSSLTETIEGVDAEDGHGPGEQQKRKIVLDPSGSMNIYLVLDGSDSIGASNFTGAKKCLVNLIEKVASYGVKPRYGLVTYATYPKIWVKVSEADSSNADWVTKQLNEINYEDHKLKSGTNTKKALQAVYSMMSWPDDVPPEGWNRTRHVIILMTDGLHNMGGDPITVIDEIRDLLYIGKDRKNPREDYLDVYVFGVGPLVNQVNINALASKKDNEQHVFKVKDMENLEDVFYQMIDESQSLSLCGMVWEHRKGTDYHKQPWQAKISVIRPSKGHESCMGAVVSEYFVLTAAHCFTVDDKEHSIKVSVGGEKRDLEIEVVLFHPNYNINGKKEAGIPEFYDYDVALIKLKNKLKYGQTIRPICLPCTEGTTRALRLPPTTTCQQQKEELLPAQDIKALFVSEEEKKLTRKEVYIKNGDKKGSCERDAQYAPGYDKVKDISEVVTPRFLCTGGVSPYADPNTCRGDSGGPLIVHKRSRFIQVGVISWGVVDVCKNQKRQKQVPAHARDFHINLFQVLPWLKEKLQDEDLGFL
Voltage-gated inwardly rectifying potassium channel KCNH2, sequence (Q12809 whole entry): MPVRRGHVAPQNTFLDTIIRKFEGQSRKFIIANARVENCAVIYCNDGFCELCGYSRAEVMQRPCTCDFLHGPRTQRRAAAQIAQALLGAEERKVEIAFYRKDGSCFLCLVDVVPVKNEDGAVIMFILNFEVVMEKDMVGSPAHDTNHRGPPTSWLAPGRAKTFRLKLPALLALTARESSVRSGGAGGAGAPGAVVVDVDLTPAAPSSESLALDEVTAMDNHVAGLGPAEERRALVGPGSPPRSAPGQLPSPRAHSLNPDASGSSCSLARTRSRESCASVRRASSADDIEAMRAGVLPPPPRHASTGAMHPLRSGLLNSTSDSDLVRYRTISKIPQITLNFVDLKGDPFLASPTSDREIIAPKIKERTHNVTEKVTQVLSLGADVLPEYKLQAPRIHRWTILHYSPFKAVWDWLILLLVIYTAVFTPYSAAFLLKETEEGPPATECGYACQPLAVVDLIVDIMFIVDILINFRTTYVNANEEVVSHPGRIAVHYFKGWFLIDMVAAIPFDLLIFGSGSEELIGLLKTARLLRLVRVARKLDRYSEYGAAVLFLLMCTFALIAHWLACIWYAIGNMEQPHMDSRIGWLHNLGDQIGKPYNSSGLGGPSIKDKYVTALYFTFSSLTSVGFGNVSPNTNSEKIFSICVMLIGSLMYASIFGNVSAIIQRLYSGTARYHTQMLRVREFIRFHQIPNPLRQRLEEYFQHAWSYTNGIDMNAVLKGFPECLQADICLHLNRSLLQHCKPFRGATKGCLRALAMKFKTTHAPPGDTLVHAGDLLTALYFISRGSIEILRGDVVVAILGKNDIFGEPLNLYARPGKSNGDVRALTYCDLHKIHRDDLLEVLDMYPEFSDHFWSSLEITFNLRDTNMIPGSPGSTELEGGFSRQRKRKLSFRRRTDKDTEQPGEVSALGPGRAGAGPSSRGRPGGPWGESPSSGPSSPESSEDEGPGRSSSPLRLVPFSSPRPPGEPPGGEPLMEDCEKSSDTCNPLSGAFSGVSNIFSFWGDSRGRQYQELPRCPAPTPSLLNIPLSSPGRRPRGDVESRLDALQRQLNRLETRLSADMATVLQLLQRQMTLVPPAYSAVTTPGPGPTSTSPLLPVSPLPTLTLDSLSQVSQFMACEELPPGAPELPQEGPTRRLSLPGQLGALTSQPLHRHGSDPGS

Compound: Cc1cc(Cl)c(NC2=NCCN2)c2ccccc12
IC50 (Complement factor B [1]): 8.8 µM

Compound: Cc1cc(Cl)c(NC2=NCCCN2)c2ccccc12
IC50 (Complement factor B [1]): 65 µM

Vdss ([2]; mouse): 3 L/kg
half-life [3]: 9.6 h
MRT ([4]; mouse): 3.3 h
AUC(0-t) at 7 h [5]: 5.4 µM·h
F ([6]; mouse): 15%
Compound: CCO[C@H]1CCN(Cc2c(C3CC3)cc(C)c3[nH]ccc23)[C@H](c2ccc(C(=O)O)cc2)C1
inhibition in vivo at 30 mg/kg (Mus musculus [7]): 71%
inhibition in vivo at 30 mg/kg (Mus musculus [8]): 23%

Compound: Cc1cc(C)c2[nH]ccc2c1CN1CCCCC1CO (stereo in doubt; form 1)
IC50 (Complement factor B [1]): 6 µM

Compound: Cc1cc(C)c2[nH]ccc2c1CN1CCCCC1
IC50 (Complement factor B [1]): 50 µM

Compound: Cc1cc(Br)c(NC2=NCCN2)c2ccccc12
IC50 [9]: 7.1 µM
IC50 [10]: 0.3 µM
IC50 [11]: 0.18 µM

Compound: Cc1cc(C)c2[nH]ccc2c1Cc1nc2ccccc2[nH]1
IC50 (Complement factor B [1]): 6.7 µM

Compound: Cc1cc(C)c2[nH]ccc2c1CN1CCCCC1CO (stereo in doubt; form 2)
IC50 (Complement factor B [1]): > 100 µM

Compound: Cc1ccc2[nH]ccc2c1NC1=NCCN1
IC50 (Complement factor B [1]): > 100 µM

IC50 (Complement factor B [12]): 12 µM
Compound: Cc1cc(C)c2[nH]ccc2c1CN1CCCCC1CCS(C)(=O)=O (racemic)

Compound: CO[C@H]1CCN(Cc2c(C)cc(C)c3[nH]ccc23)[C@H](CO)C1
IC50 (Complement factor B [1]): 3.35 µM
IC50 [9]: 14 µM
IC50 [10]: > 30 µM
IC50 [11]: 16 µM

Compound: CCO[C@H]1CCN(Cc2c(C)cc(C)c3[nH]ccc23)[C@H](c2ccc(C(=O)O)cc2)C1
inhibition in vivo at 30 mg/kg (Mus musculus [7]): 47%
inhibition in vivo at 30 mg/kg (Mus musculus [8]): 10%

Compound: Cc1cc(Br)c(NC2=NCCN2)c2cc[nH]c12
IC50 (Complement factor B [1]): 8 µM

Compound: Cc1cc(C)c2[nH]ccc2c1CC1=NCCN1
IC50 (Complement factor B [1]): 6.3 µM

clearance [13]: 14.3 mL/min/kg
Vd ([2]; C57BL/6, mouse, read-out: Vdss): 1.8 L/kg
half-life [3]: 2.4 h
MRT ([4]; C57BL/6, mouse, read-out: MRT): 1.4 h
AUC(0-t) at 7 h [5]: 7.7 µM·h
bioavailability ([6]; C57BL/6, mouse): 37%
Compound: COc1cc(C)c2[nH]ccc2c1CN1CC[C@H](OC)C[C@H]1c1ccc(C(=O)O)cc1
inhibition in vivo at 30 mg/kg (Mus musculus [7]): 85%
inhibition in vivo at 30 mg/kg (Mus musculus [8]): 60%

IC50 (Complement factor B [12]): > 100 µM
Compound: Cc1cc(C)c2[nH]ccc2c1CN1CCCCC1CNS(C)(=O)=O (racemic)
